{"source": "patent US6365631B1", "about": "“Method of treating sleep apnoea” (Knoll Pharmaceutical Company, priority 1999, dated 2002)", "key": {"[1]": {"system": "patients suffering from clinically relevant obesity, many with serious sleep apnoea problems", "experiment": "clinical study, computer supported arousal/apnoea recognition in subset of 36 of 150 obese patients", "assay_type": "in vivo, human", "conditions": "Sibutramine 20 mg daily; week-12 vs week-1 (pre-treatment); subset of 36 patients", "protocol": "The beneficial effects of the compounds of the present invention at doses of 15 mg and 20 mg daily may also be confirmed in a double-blind, randomised, placebo-controlled clinical trial using questionnaires or by recording Holter ecgs with a Rozin/GeTeMed tape recorder device for 24 to 36 hours pre and post treatment period, using IEC-I type tapes. The ecg data may be computer-processed to study arousals.\nIn a clinical study with 150 patients suffering from clinically relevant obesity, many of them with serious sleep apnoea problems, a subset of 36 patients was arbitrarily selected for computer supported arousal/apnoea recognition. Two consecutive nights were recorded at week-1 (pre-treatment) and week-12 of treatment, and the number of arousals per hour of sleep time was evaluated. […] Compared to placebo this is significant at a 5%-level (p=0.0227)."}, "[2]": {"system": "patients suffering from clinically relevant obesity (BMI>30) and sleep apnoea", "experiment": "open explorative study with 5 volunteer patients with obesity and sleep apnoea", "method": "Study design: An open explorative study with 5 volunteer patients suffering from clinically relevant obesity (BMI>30) and sleep apnoea was performed. […] No other control treatment was applied.\nMethods: Patients willing to lose weight who had obtained prescriptions for Reductil® (Knoll) from their doctor were asked to take part in this voluntary observational study. All patients were willing to change dietary habits during treatment, and to perform at least moderate physical training (twice a week at least half an hour). Patients were interviewed pre and post treatment, and their partners asked for their observations on snoring behaviour. The patients were asked for their own rating of severity of daytime sleepiness, and their partners for objective observations about frequency and heaviness of snoring as well as for their observations about apnoea signs."}, "[3]": {"conditions": "5 patients, 10 or 15 mg daily, 6 to 14 weeks"}}}
{"compound": "CC(C)CC(N(C)C)C1(c2ccc(Cl)cc2)CCC1", "note": "(stereo not drawn) [sibutramine, N,N-dimethyl-1-[1-(4-chlorophenyl)cyclobutyl]-3-methylbutylamine]", "values": [{"measurement": "reduction of number of arousals per hour of sleep time", "setting": "[1]", "result": "clinically significant effect"}, {"measurement": "mean weight loss under treatment", "setting": "[2]; [3]", "result": 14, "unit": "kg"}, {"measurement": "weight loss, span over patients", "setting": "[2]; [3]", "result": "−7% to −22%"}, {"measurement": "mean weight loss under treatment (percent)", "setting": "[2]; 5 patients, 10 or 15 mg/kg daily, 6 to 14 weeks", "result": 14.6, "unit": "%"}, {"measurement": "Mean BMI at end of treatment", "setting": "[2]; 5 patients, sibutramine 10 or 15 mg daily, 6 to 14 weeks, 34 before treatment", "result": 29}, {"measurement": "arousal index Al, mean after treatment", "setting": "[2]; mean 23,5 before treatment", "result": "10,0"}, {"measurement": "patients with clearly reduced daytime sleepiness", "setting": "[2]; of 5 patients, after treatment", "result": "4 out of 5"}, {"measurement": "patients reporting improved ease of breathing with closed mouth", "setting": "[2]; of 5 patients, under treatment", "result": "3 out of 5"}, {"measurement": "decrease of arousal index, span over patients", "setting": "[2]; pre vs post treatment", "result": "−25% to −67%"}, {"measurement": "mean decrease of arousal index", "setting": "[2]; pre vs post treatment", "result": "−57", "unit": "%"}, {"measurement": "daytime sleepiness scale after treatment, patient-reported", "setting": "[2]; scale 0-3, 2,0 before treatment", "result": "0,6"}, {"measurement": "snoring scale mean after treatment, observed by sleep companions", "setting": "[2]; scale 0-3, mean score 2,2 before treatment", "result": 1}]}
